Assay results as given in the NIST ThermoML archive (doi:10.1021/je700276z).
± gives the expanded uncertainty stated by the source.

Assay: Solid-liquid equilibrium temperature
Conditions: Crystal

Row | SMILES | Solid-liquid equilibrium temperature (100000 kPa) | Solid-liquid equilibrium temperature (200000 kPa) | Solid-liquid equilibrium temperature (300000 kPa) | Solid-liquid equilibrium temperature (400000 kPa) | Solid-liquid equilibrium temperature (500000 kPa) | Solid-liquid equilibrium temperature (600000 kPa) | Solid-liquid equilibrium temperature (700000 kPa) | Solid-liquid equilibrium temperature (800000 kPa) | Solid-liquid equilibrium temperature (900000 kPa) | Solid-liquid equilibrium temperature (1000000 kPa) | Solid-liquid equilibrium temperature (1500000 kPa) | Solid-liquid equilibrium temperature (2000000 kPa) | Solid-liquid equilibrium temperature (2500000 kPa) | Solid-liquid equilibrium temperature (3000000 kPa) | Solid-liquid equilibrium temperature (3500000 kPa)
1 | O=[N+]([O-])c1ccccc1 [nitrobenzene] | 299.74 ± 1.5 K | 320.77 ± 1.7 K | 340.02 ± 1.9 K | 360.41 ± 2.1 K | 378.61 ± 2.3 K | 395.9 ± 2.4 K | 412.3 ± 2.6 K | 427.24 ± 2.7 K | 442.98 ± 2.9 K | 462.61 ± 10 K | 516.38 ± 10 K | 565.62 ± 10 K | 595.88 ± 10 K | 614.38 ± 10 K | –
2 | Clc1ccccc1 [chlorobenzene] | 246.4 ± 1.2 K | 263.03 ± 1.4 K | 273.46 ± 1.5 K | 288.44 ± 1.7 K | 301.03 ± 1.8 K | 315.62 ± 1.9 K | 325.56 ± 2 K | 336.87 ± 2.1 K | 348.81 ± 2.2 K | 354.76 ± 10 K | 403.44 ± 10 K | 440.81 ± 10 K | 473.28 ± 10 K | 503.63 ± 10 K | 530.87 ± 10 K
3 | Brc1ccccc1 [bromobenzene] | 259.05 ± 1.3 K | 276.45 ± 1.5 K | 292.45 ± 1.7 K | 310.05 ± 1.8 K | 322.55 ± 1.9 K | 336.15 ± 2 K | 349.25 ± 2.2 K | 361.85 ± 2.3 K | 374.75 ± 2.4 K | 382.85 ± 10 K | 430.05 ± 10 K | 473.67 ± 10 K | 514.22 ± 10 K | 553.94 ± 10 K | 587.21 ± 10 K
4 | c1ccccc1 [benzene] | 306.44 ± 1.6 K | 329.93 ± 1.8 K | 351.25 ± 2 K | 370.85 ± 2.2 K | 389.07 ± 2.3 K | 406.15 ± 2.5 K | 422.25 ± 2.6 K | 437.52 ± 2.8 K | 452.06 ± 2.9 K | 465.96 ± 3.1 K | 538.73 ± 10 K | 584.85 ± 10 K | 625.73 ± 10 K | 663.67 ± 10 K | –
